Reference: ChEMBL document CHEMBL3997785, “Optimization of 2-Anilino 4-Amino Substituted Quinazolines into Potent Antimalarial Agents with Oral in Vivo Activity” (J Med Chem, 2017)

System: Plasmodium falciparum
Assay: Antimalarial activity against Plasmodium falciparum 3D7 asexual blood stage infected in human erythrocytes incubated for 72 hrs by LDH assay
Type: functional, cell-based
Details: 3D7, 72 h
Compound `Fc1ccc(Nc2nc(NCc3ccccc3)c3ccccc3n2)cc1Cl` has an EC50 of 0.056 µM. Compound `Fc1ccc(Nc2nc(NCCN3CCOCC3)c3ccccc3n2)cc1` has an EC50 of 0.118 µM. With `Cn1ncc2c(NCc3ccccc3)nc(Nc3ccc(F)cc3)nc21` the EC50 was 7.6 µM. With `COc1cccc(Nc2nc(NCc3ccco3)c3ccccc3n2)c1OC` the EC50 was 1.3 µM. `Fc1ccc(Nc2nc(NCc3ccccc3)c3ccccc3n2)cc1` showed an EC50 of 0.077 µM. Compound `Fc1ccc(Nc2nc(NCc3ccccc3)c3sccc3n2)cc1` has an EC50 of 0.866 µM. For `CN1CCN(CCNc2nc(Nc3ccc(F)c(Cl)c3)nc3cccnc23)CC1`, the EC50 was 0.11 µM. In the case of `c1ccc2c(NCC3CCCO3)nc(Nc3ccc4c(c3)OCO4)nc2c1` (centres undefined), the EC50 is reported as 0.169 µM. In the case of `CN1CCC(Nc2nc(Nc3ccc(F)cc3)nc3ccccc23)CC1`, the EC50 is reported as 0.051 µM. For `Fc1ccc(Nc2nc(NCc3ccccc3)c3cccnc3n2)cc1`, the EC50 was 0.636 µM. Work on `FC(F)(F)c1ccc(Nc2nc(NCc3ccccc3)c3ccccc3n2)cn1` yielded an EC50 of 0.102 µM. Compound `COc1ccc(Nc2nc(NCC3CCCO3)c3ccccc3n2)c(OC)c1` (centres undefined) has an EC50 of 1.1 µM. `COc1ccccc1Nc1nc(NCC2CCCO2)c2ccccc2n1` (centres undefined) gave an EC50 of 0.526 µM. `Cc1ccc(Nc2nc(NCc3ccco3)c3ccccc3n2)cc1` showed an EC50 of 0.109 µM. `COC(=O)c1ccc(Nc2nc(NCc3ccco3)c3ccccc3n2)cc1` gave an EC50 of 0.574 µM. In the case of `Fc1ccccc1Nc1nc(NCC2CCCO2)c2ccccc2n1` (centres undefined), the EC50 is reported as 0.317 µM. For `Fc1ccc(Nc2nc(NCc3ccco3)c3ccccc3n2)cc1`, the EC50 was 0.112 µM. With `Fc1ccc(Nc2nc(NCc3ccccc3)c3ccncc3n2)cc1` the EC50 was 0.539 µM. For `CC(O)c1ccc(Nc2nc(NCc3ccco3)c3ccccc3n2)cc1` (centres undefined), the EC50 was 0.702 µM. With `CN(C)c1nc(Nc2ccc(F)cc2)nc2ccccc12` the EC50 was 0.418 µM. With `CN1CCN(C(=O)CNc2nc(Nc3ccc(F)cc3)nc3ccccc23)CC1` the EC50 was 0.064 µM. For `Fc1cc(Nc2nc(NCc3ccccc3)c3ccccc3n2)ccc1Cl`, the EC50 was 0.121 µM.

System: not listed separately
Assay: Selectivity index, ratio of EC50 for human HepG2 cells to EC50 for Plasmodium falciparum 3D7 asexual blood stage infected in human erythrocytes
Type: toxicity, cell-based
Details: read-out: Ratio EC50
`Fc1ccc(Nc2nc(NCc3ccccc3)c3ccccc3n2)cc1Cl` gave a selectivity ratio of 114. For `Fc1ccc(Nc2nc(NCCN3CCOCC3)c3ccccc3n2)cc1`, the selectivity ratio was 256. For `Cn1ncc2c(NCc3ccccc3)nc(Nc3ccc(F)cc3)nc21`, the selectivity ratio was 3. With `Fc1ccc(Nc2nc(NCc3ccccc3)c3ccccc3n2)cc1` the selectivity ratio was 67. For `CN1CCN(CCNc2nc(Nc3ccc(F)c(Cl)c3)nc3cccnc23)CC1`, the selectivity ratio was 80. In the case of `Clc1ccc(Nc2nc(NCc3ccco3)c3ccccc3n2)cc1`, the selectivity ratio is reported as 71. `c1ccc2c(NCC3CCCO3)nc(Nc3ccc4c(c3)OCO4)nc2c1` (centres undefined) showed a selectivity ratio of 51. Compound `CN1CCC(Nc2nc(Nc3ccc(F)cc3)nc3ccccc23)CC1` has a selectivity ratio of 227. `FC(F)(F)c1ccc(Nc2nc(NCc3ccccc3)c3ccccc3n2)cn1` showed a selectivity ratio of 87. With `COc1ccc(Nc2nc(NCC3CCCO3)c3ccccc3n2)c(OC)c1` (centres undefined) the selectivity ratio was 19. For `COc1ccccc1Nc1nc(NCC2CCCO2)c2ccccc2n1` (centres undefined), the selectivity ratio was 47. For `Cc1ccc(Nc2nc(NCc3ccco3)c3ccccc3n2)cc1`, the selectivity ratio was 54. With `COC(=O)c1ccc(Nc2nc(NCc3ccco3)c3ccccc3n2)cc1` the selectivity ratio was 58. With `Fc1ccccc1Nc1nc(NCC2CCCO2)c2ccccc2n1` (centres undefined) the selectivity ratio was 75. Compound `Fc1ccc(Nc2nc(NCc3ccco3)c3ccccc3n2)cc1` has a selectivity ratio of 43. In the case of `Fc1ccc(Nc2nc(NCc3ccccc3)c3ccncc3n2)cc1`, the selectivity ratio is reported as 33. In the case of `CN(C)c1nc(Nc2ccc(F)cc2)nc2ccccc12`, the selectivity ratio is reported as 48. With `CN1CCN(C(=O)CNc2nc(Nc3ccc(F)cc3)nc3ccccc23)CC1` the selectivity ratio was 473. For `COc1cccc(Nc2nc(NCC3CCCO3)c3ccccc3n2)c1` (centres undefined), the selectivity ratio was 33. Work on `Fc1cc(Nc2nc(NCc3ccccc3)c3ccccc3n2)ccc1Cl` yielded a selectivity ratio of 55.

System: Plasmodium falciparum
Assay: Antimalarial activity against chloroquine and mefloquine resistant Plasmodium falciparum W2mef infected in human erythrocytes incubated for 72 hrs by LDH assay
Type: functional, cell-based
Details: not given
`Fc1ccc(Nc2nc(NCc3ccccc3)c3ccccc3n2)cc1Cl` gave an EC50 of 0.08 µM. For `Fc1cc(Nc2nc(NCc3ccccc3)c3ccccc3n2)ccc1Cl`, the EC50 was 0.075 µM.

System: HepG2
Assay: Cytotoxicity against human HepG2 cells assessed as growth inhibition after 48 hrs by Cell Titer-Glo assay
Type: cell-based
Details: HepG2, 48 h
Work on `Fc1ccc(Nc2nc(NCc3ccccc3)c3ccccc3n2)cc1Cl` yielded an EC50 of 6.3 µM. `Fc1ccc(Nc2nc(NCCN3CCOCC3)c3ccccc3n2)cc1` showed an EC50 of 30.1 µM. With `Cn1ncc2c(NCc3ccccc3)nc(Nc3ccc(F)cc3)nc21` the EC50 was 26 µM. For `COc1cccc(Nc2nc(NCc3ccco3)c3ccccc3n2)c1OC`, the EC50 was 20.1 µM. With `Fc1ccc(Nc2nc(NCc3ccccc3)c3ccccc3n2)cc1` the EC50 was 5.1 µM. Compound `Fc1ccc(Nc2nc(NCc3ccccc3)c3sccc3n2)cc1` has an EC50 of 18.7 µM. Work on `CN1CCN(CCNc2nc(Nc3ccc(F)c(Cl)c3)nc3cccnc23)CC1` yielded an EC50 of 8.9 µM. `Clc1ccc(Nc2nc(NCc3ccco3)c3ccccc3n2)cc1` gave an EC50 of 7.4 µM. For `c1ccc2c(NCC3CCCO3)nc(Nc3ccc4c(c3)OCO4)nc2c1` (centres undefined), the EC50 was 8.6 µM. Compound `CN1CCC(Nc2nc(Nc3ccc(F)cc3)nc3ccccc23)CC1` has an EC50 of 11.5 µM. `Fc1ccc(Nc2nc(NCc3ccccc3)c3cccnc3n2)cc1` gave an EC50 of 12.4 µM. In the case of `FC(F)(F)c1ccc(Nc2nc(NCc3ccccc3)c3ccccc3n2)cn1`, the EC50 is reported as 8.9 µM. Work on `COc1ccc(Nc2nc(NCC3CCCO3)c3ccccc3n2)c(OC)c1` (centres undefined) yielded an EC50 of 15.8 µM. `COc1ccccc1Nc1nc(NCC2CCCO2)c2ccccc2n1` (centres undefined) showed an EC50 of 24.5 µM. `COc1cc([C@@H]2c3cc4c(cc3[C@@H](O[C@@H]3O[C@@H]5CO[C@@H](C)O[C@H]5[C@H](O)[C@H]3O)[C@H]3COC(=O)[C@H]23)OCO4)cc(OC)c1O` [ETOPOSIDE] gave an EC50 of 15.9 µM. `Cc1ccc(Nc2nc(NCc3ccco3)c3ccccc3n2)cc1` showed an EC50 of 5.9 µM. `COC(=O)c1ccc(Nc2nc(NCc3ccco3)c3ccccc3n2)cc1` gave an EC50 of 33.5 µM. Work on `Fc1ccccc1Nc1nc(NCC2CCCO2)c2ccccc2n1` (centres undefined) yielded an EC50 of 21.3 µM. `Fc1ccc(Nc2nc(NCc3ccco3)c3ccccc3n2)cc1` gave an EC50 of 4.9 µM. `Fc1ccc(Nc2nc(NCc3ccccc3)c3ccncc3n2)cc1` showed an EC50 of 17.8 µM. `CC(O)c1ccc(Nc2nc(NCc3ccco3)c3ccccc3n2)cc1` (centres undefined) showed an EC50 of 12.6 µM. For `CN(C)c1nc(Nc2ccc(F)cc2)nc2ccccc12`, the EC50 was 20.1 µM. In the case of `CN1CCN(C(=O)CNc2nc(Nc3ccc(F)cc3)nc3ccccc23)CC1`, the EC50 is reported as 30.4 µM. `COc1cccc(Nc2nc(NCC3CCCO3)c3ccccc3n2)c1` (centres undefined) gave an EC50 of 7.7 µM. `Fc1cc(Nc2nc(NCc3ccccc3)c3ccccc3n2)ccc1Cl` gave an EC50 of 6.6 µM.
